The test has as its target T1, VvCAT2.
T1 construct: gene CAT2; full-length, C-terminal 6His, reconstituted in proteoliposomes
In words: competitive inhibition of [3H]arginine uptake in proteoliposomes with purified transporter (Lineweaver-Burk); also transported as [3H]ornithine. Type of test: biochemical, Vitis vinifera.

The term Ki denotes the dissociation constant of the complex between target and ligand, obtained from inhibition or displacement. `NCCC[C@H](N)C(=O)O` [ornithine] had an inhibition constant Ki of 2200 ± 500 µM.

For the origin of these results see article PMC12250071, “Cloning, Expression and Functional Characterization of V. vinifera CAT2 Arginine Transporter” (International Journal of Molecular Sciences, 2025).
